Laboratory results taken from the supplement of paper PMC11061612.

Assays:
Capivasertib = compound: C1CN(CCC1(C(=O)N[C@@H](CCO)C2=CC=C(C=C2)Cl)N)C3=NC=NC4=C3C=CN4 [Capivasertib]; details: max 10 µM
Method in brief: (§1)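 Viability was measured with CellTiter-Glo 2.0 luminescence after 72 hours of dosing at a final DMSO of typically 0.2%, and scaled between blank-well and DMSO-well means. Beforehand, cancer cell lines sat 24 hours at 37°C and 5% CO2 in 1536-well plates in 7.5 μl DMEM/F12 or RPMI with 10% FBS. A non-linear mixed effects model fitted two-parameter logistic curves to the dose responses. The single-agent IC50 comes from these fits.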

AZD1775 = compound: C=CCn1c(=O)c2cnc(Nc3ccc(N4CCN(C)CC4)cc3)nc2n1-c1cccc(C(C)(C)O)n1 [AZD1775]; details: max 3 µM
Method in brief: as §1

Trametinib = compound: CC(=O)Nc1cccc(-n2c(=O)n(C3CC3)c(=O)c3c(Nc4ccc(I)cc4F)n(C)c(=O)c(C)c32)c1 [Trametinib]; details: max 1 µM
Method in brief: as §1

Palbociclib = compound: CC(=O)c1c(C)c2cnc(Nc3ccc(N4CCNCC4)cn3)nc2n(C2CCCC2)c1=O [Palbociclib]; details: max 10 µM
Method in brief: as §1

AZD1390 = compound: CC(C)n1c(=O)n(C)c2cnc3cc(F)c(-c4ccc(OCCCN5CCCCC5)nc4)cc3c21 [AZD1390]; details: max 0.3 µM
Method in brief: as §1

Venetoclax = compound: CC1(C)CCC(CN2CCN(c3ccc(C(=O)NS(=O)(=O)c4ccc(NCC5CCOCC5)c([N+](=O)[O-])c4)c(Oc4cnc5[nH]ccc5c4)c3)CC2)=C(c2ccc(Cl)cc2)C1 [Venetoclax]; details: max 1 µM
Method in brief: as §1

Dasatinib = compound: CC1=C(C(=CC=C1)Cl)NC(=O)C2=CN=C(S2)NC3=CC(=NC(=N3)C)N4CCN(CC4)CCO [Dasatinib]; details: max 2 µM
Method in brief: as §1

SG3199 = compound: CC1=CN2[C@@H](C1)C=NC3=CC(=C(C=C3C2=O)OC)OCCCCCOC4=C(C=C5C(=C4)N=C[C@@H]6CC(=CN6C5=O)C)OC [SG3199]; details: max 0.001 µM
Method in brief: as §1

AZD2811 = compound: CCN(CCO)CCCOc1ccc2c(Nc3cc(CC(=O)Nc4cccc(F)c4)[nH]n3)ncnc2c1 [AZD2811]; details: max 1 µM
Method in brief: as §1

SN-38 = compound: CCc1c2c(nc3ccc(O)cc13)-c1cc3c(c(=O)n1C2)COC(=O)[C@]3(O)CC [SN-38]; details: max 0.3 µM
Method in brief: as §1

AZD0156 = compound: CN(C)CCCOc1ccc(-c2ccc3ncc4c(c3c2)n(C2CCOCC2)c(=O)n4C)cn1 [AZD0156]; details: max 3 µM
Method in brief: as §1

AZD4320 = compound: CN(CC[C@H](CSC1=CC=CC=C1)NC2=C(C=C(C=C2)S(=O)(=O)NC(=O)C3=CC=C(C=C3)N4CCC(CC4)[C@H](C5=CC=CC=C5C6=CC=C(C=C6)Cl)O)S(=O)(=O)C(F)(F)F)CCO [AZD4320]; details: max 1 µM
Method in brief: as §1

Alisertib = compound: COc1cc(Nc2ncc3c(n2)-c2ccc(Cl)cc2C(c2c(F)cccc2OC)=NC3)ccc1C(=O)O [Alisertib]; details: max 10 µM
Method in brief: as §1

Gefitinib = compound: COc1cc2ncnc(Nc3ccc(F)c(Cl)c3)c2cc1OCCCN1CCOCC1 [Gefitinib]; details: max 10 µM
Method in brief: as §1

Prexasertib = compound: COc1cccc(OCCCN)c1-c1cc(Nc2cnc(C#N)cn2)n[nH]1 [Prexasertib]; details: max 1 µM
Method in brief: as §1

Doxorubicin = compound: COc1cccc2c1C(=O)c1c(O)c3c(c(O)c1C2=O)C[C@@](O)(C(=O)CO)C[C@@H]3O[C@H]1C[C@H](N)[C@H](O)[C@H](C)O1 [Doxorubicin]; details: max 1 µM
Method in brief: as §1

AZD5153 = compound: COc1nnc2ccc(N3CCC(c4ccc(OCCN5CCN(C)C(=O)[C@H]5C)cc4)CC3)nn12 [AZD5153]; details: max 1 µM
Method in brief: as §1

Lapatinib = compound: CS(=O)(=O)CCNCc1ccc(-c2ccc3ncnc(Nc4ccc(OCc5cccc(F)c5)c(Cl)c4)c3c2)o1 [Lapatinib]; details: max 10 µM
Method in brief: as §1

AZD8186 = compound: C[C@@H](Nc1cc(F)cc(F)c1)c1cc(C(=O)N(C)C)cc2c(=O)cc(N3CCOCC3)oc12 [AZD8186]; details: max 3 µM
Method in brief: as §1

Crizotinib = compound: C[C@@H](Oc1cc(-c2cnn(C3CCNCC3)c2)cnc1N)c1c(Cl)ccc(F)c1Cl [Crizotinib]; details: max 10 µM
Method in brief: as §1

Savolitinib = compound: C[C@@H](c1ccc2nccn2c1)n1nnc2ncc(-c3cnn(C)c3)nc21 [Savolitinib]; details: max 1 µM
Method in brief: as §1

AZD6738 = compound: C[C@@H]1COCCN1C2=NC(=NC(=C2)C3(CC3)[S@](=N)(=O)C)C4=C5C=CNC5=NC=C4 [AZD6738]; details: max 10 µM
Method in brief: as §1

AZD5991 = compound: Cc1c2c(nn1C)CSCc1cc(n(C)n1)CSc1cc(c3ccccc3c1)OCCCc1c(C(=O)O)n(C)c3c-2c(Cl)ccc13 [AZD5991]; details: max 1 µM
Method in brief: as §1

AZD7648 = compound: Cc1cc2ncnn2cc1Nc1ncc2c(n1)n(C1CCOCC1)c(=O)n2C [AZD7648]; details: max 10 µM
Method in brief: as §1

Taselisib = compound: Cc1nc(-c2cn3c(n2)-c2ccc(-c4cnn(C(C)(C)C(N)=O)c4)cc2OCC3)n(C(C)C)n1 [Taselisib]; details: max 10 µM
Method in brief: as §1

Selumetinib = compound: Cn1cnc2c(F)c(Nc3ccc(Br)cc3Cl)c(C(=O)NOCCO)cc21 [Selumetinib]; details: max 10 µM
Method in brief: as §1

MK-2206 = compound: NC1(c2ccc(-c3nc4ccn5c(=O)[nH]nc5c4cc3-c3ccccc3)cc2)CCC1 [MK-2206]; details: max 10 µM
Method in brief: as §1

Olaparib = compound: O=C(c1cc(Cc2n[nH]c(=O)c3ccccc23)ccc1F)N1CCN(C(=O)C2CC2)CC1 [Olaparib]; details: max 10 µM
Method in brief: as §1

Row | Cell Line | IC50, cell viability 72 h (Capivasertib) | IC50, cell viability 72 h (AZD1775) | IC50, cell viability 72 h (Trametinib) | IC50, cell viability 72 h (Palbociclib) | IC50, cell viability 72 h (AZD1390) | IC50, cell viability 72 h (Venetoclax) | IC50, cell viability 72 h (Dasatinib) | IC50, cell viability 72 h (SG3199) | IC50, cell viability 72 h (AZD2811) | IC50, cell viability 72 h (SN-38) | IC50, cell viability 72 h (AZD0156) | IC50, cell viability 72 h (AZD4320) | IC50, cell viability 72 h (Alisertib) | IC50, cell viability 72 h (Gefitinib) | IC50, cell viability 72 h (Prexasertib) | IC50, cell viability 72 h (Doxorubicin) | IC50, cell viability 72 h (AZD5153) | IC50, cell viability 72 h (Lapatinib) | IC50, cell viability 72 h (AZD8186) | IC50, cell viability 72 h (Crizotinib) | IC50, cell viability 72 h (Savolitinib) | IC50, cell viability 72 h (AZD6738) | IC50, cell viability 72 h (AZD5991) | IC50, cell viability 72 h (AZD7648) | IC50, cell viability 72 h (Taselisib) | IC50, cell viability 72 h (Selumetinib) | IC50, cell viability 72 h (MK-2206) | IC50, cell viability 72 h (Olaparib)
1 | HGC-27 (Gastric Carcinoma) | 0.346 µM | 2240 nM | > 1000 nM | 3.21 µM | > 300 nM | > 1000 nM | 349 nM | > 1 nM | 94.1 nM | 14.6 nM | > 3000 nM | > 1000 nM | 0.164 µM | > 10 µM | 76.8 nM | 146 nM | 54.8 nM | 4.94 µM | 2380 nM | 3.25 µM | > 1000 nM | 2.84 µM | > 1000 nM | > 10 µM | 0.0611 µM | > 10 µM | 0.501 µM | > 10 µM
2 | HSC-4 (Oral Cavity Carcinoma) | > 10 µM | > 3000 nM | > 1000 nM | > 10 µM | > 300 nM | > 1000 nM | > 2000 nM | > 1 nM | > 1000 nM | 11.2 nM | > 3000 nM | > 1000 nM | > 10 µM | > 10 µM | 205 nM | > 1000 nM | > 1000 nM | > 10 µM | > 3000 nM | > 10 µM | > 1000 nM | 7.28 µM | > 1000 nM | > 10 µM | > 10 µM | > 10 µM | > 10 µM | > 10 µM
3 | NUGC-3 (Gastric Carcinoma) | > 10 µM | 729 nM | 592 nM | > 10 µM | > 300 nM | > 1000 nM | > 2000 nM | > 1 nM | > 1000 nM | 5.05 nM | > 3000 nM | > 1000 nM | > 10 µM | > 10 µM | 193 nM | 128 nM | > 1000 nM | 5.31 µM | > 3000 nM | > 10 µM | > 1000 nM | 6.49 µM | > 1000 nM | > 10 µM | 3.75 µM | > 10 µM | > 10 µM | > 10 µM
4 | OSC-20 (Oral Cavity Carcinoma) | > 10 µM | 1220 nM | > 1000 nM | > 10 µM | > 300 nM | > 1000 nM | > 2000 nM | > 1 nM | > 1000 nM | 40.4 nM | > 3000 nM | > 1000 nM | > 10 µM | > 10 µM | 458 nM | > 1000 nM | > 1000 nM | > 10 µM | > 3000 nM | > 10 µM | > 1000 nM | > 10 µM | > 1000 nM | > 10 µM | 9.68 µM | > 10 µM |  | > 10 µM
5 | OVCAR-4 (Ovarian Carcinoma) | > 10 µM | > 3000 nM | > 1000 nM | > 10 µM | > 300 nM | > 1000 nM | > 2000 nM | > 1 nM | > 1000 nM | > 300 nM | > 3000 nM | > 1000 nM | > 10 µM | > 10 µM | 57.4 nM | > 1000 nM | > 1000 nM | > 10 µM | > 3000 nM | > 10 µM | > 1000 nM | 6.93 µM | > 1000 nM | > 10 µM | > 10 µM | > 10 µM |  | > 10 µM
6 | PWR-1E (Non-Cancerous) | > 10 µM | 525 nM | > 1000 nM | > 10 µM | > 300 nM | > 1000 nM | 371 nM | > 1 nM | 827 nM | 13 nM | > 3000 nM | > 1000 nM | 1.51 µM | > 10 µM | 28.1 nM | > 1000 nM | 343 nM | > 10 µM | > 3000 nM | 8.5 µM | > 1000 nM | 2.82 µM | > 1000 nM | > 10 µM | 7.81 µM | > 10 µM | > 10 µM | > 10 µM
7 | SCC-15 (Oral Cavity Carcinoma) | > 10 µM | > 3000 nM | > 1000 nM | > 10 µM | > 300 nM | > 1000 nM | 1360 nM | > 1 nM | > 1000 nM | 66.1 nM | > 3000 nM | > 1000 nM | > 10 µM | > 10 µM | 682 nM | > 1000 nM | > 1000 nM | > 10 µM | > 3000 nM | > 10 µM | > 1000 nM | > 10 µM | > 1000 nM | > 10 µM | 2 µM | > 10 µM |  | > 10 µM
8 | SU8686 (Pancreatic Carcinoma) | > 10 µM | > 3000 nM | > 1000 nM | > 10 µM | > 300 nM | > 1000 nM | > 2000 nM | > 1 nM | > 1000 nM | > 300 nM | > 3000 nM | > 1000 nM | > 10 µM | > 10 µM | 489 nM | > 1000 nM | > 1000 nM | > 10 µM | > 3000 nM | > 10 µM | > 1000 nM | > 10 µM | > 1000 nM | > 10 µM | > 10 µM | > 10 µM |  | > 10 µM
9 | TE-1 (Esophageal Squamous Cell Carcinoma) | > 10 µM | 2220 nM | > 1000 nM | > 10 µM | > 300 nM | > 1000 nM | 393 nM | > 1 nM | > 1000 nM | 157 nM | > 3000 nM | > 1000 nM | 6.09 µM | > 10 µM | 131 nM | > 1000 nM | > 1000 nM | > 10 µM | > 3000 nM | > 10 µM | > 1000 nM | > 10 µM | > 1000 nM | > 10 µM | 7.85 µM | > 10 µM |  | > 10 µM
10 | VA-ES-BJ (Other Solid Carcinomas) | > 10 µM | 3000 nM | > 1000 nM | > 10 µM | > 300 nM | > 1000 nM | > 2000 nM | > 1 nM | > 1000 nM | 18.8 nM | > 3000 nM | > 1000 nM | 4.77 µM | > 10 µM | 118 nM | 464 nM | > 1000 nM | > 10 µM | > 3000 nM | > 10 µM | > 1000 nM | 4.58 µM | > 1000 nM | > 10 µM | 4.5 µM | > 10 µM |  | > 10 µM
